# From publication PMC11672637, “7-O-Carboxylic Acid-Substituted 3-O-Alkyl Difluoroquercetin; An Aztreonam-Potentiating Agent Against Carbapenemase-Producing Pseudomonas aeruginosa Through Simultaneous Inhibition of Metallo-β-Lactamase and Efflux Pump” (Antibiotics, 2024)
# Read-outs that look alike come from different tables or passages of the source.
# Experiments:
# Type in all cases: cell-based, P. aeruginosa
# [1] = system: PA-003, blaVIM; test: Time–kill assay; settings: ATM 2 MIC + 5 at 8 mg/L
# Method: Aliquots (50 μL) were taken from the incubation mixture at regular time intervals (t = 0, 3, 6, and 24 h), serially diluted in 0.85% NaCl solution, and plated on BAP. Bacterial colonies were counted, and the data are presented as the means of at least three independent experiments.
# [2] = system: PA-044, blaNDM; test: MIC / checkerboard with ATM; settings: for MIC: Pseudomonas aeruginosa, read-out: MIC of ATM with 5, PA-044
# [3] = system: PA-042, blaIMP/NDM; test: MIC / checkerboard with ATM; settings: for MIC: Pseudomonas aeruginosa, read-out: MIC of ATM with 5, PA-042
# [4] = system: PA-030, blaIMP; test: MIC / checkerboard with ATM; settings: for MIC: Pseudomonas aeruginosa, read-out: MIC of ATM with 5, PA-030
# [5] = system: PA-035, blaGES; test: MIC / checkerboard with ATM; settings: for MIC: Pseudomonas aeruginosa, read-out: MIC of ATM with 5, PA-035
# [6] = system: PA-025, blaNDM; test: MIC / checkerboard with ATM; settings: PA-025
compound,measurement,setting,value
"CC(C)(C)CCOc1c(-c2ccc(F)c(F)c2)oc2cc(OCC(=O)O)cc(O)c2c1=O [Compound 5, 2-((2-(3,4-Difluorophenyl)-3-(3,3-dimethylbutoxy)-5-hydroxy-4-oxo-4H-chromen-7-yl)oxy)acetic Acid]","Diff. (ATM + 5, 24 h vs initial inoculum)",[1],−5.73 Log CFU/mL
same,Diff. (ATM + 5 vs ATM only),[1],−6.4 Log CFU/mL
same,"Synergistic activity, interpretation",[1],Synergy (a ≥ 2 log10 decrease in CFU/mL for the combination of ATM and 5 compared to ATM alone after 24 h of incubation)
same,"Log CFU/mL, ATM + 5",[1]; 24 h,0.00 Log CFU/mL
same,Activity (FICI class),[2]; PA-044,"S (S (Synergy, FICI ≤ 0.5))"
same,Concentrations of ATM and 5 at lowest FICI (ATM/5),[2]; PA-044,4/8
same,Lowest FICI (ATM/5),[2]; PA-044,0.27
same,Minimum concentration of 5 to make sensitive to ATM,[2]; PA-044,4 mg/L
same,Susceptibility to ATM,"[2]; PA-044, ATM/5","S (S (sensitive, MIC ≤ 8 mg/L))"
same,FD (fold decrease in MIC of ATM with 5),"[2]; PA-044, lowest-FICI combination",4
same,MIC,[2]; 5 at 1 mg/L,16 µg/mL
same,MIC,[2]; 5 at 2 mg/L,16 µg/mL
same,MIC,[2]; 5 at 4 mg/L,8 µg/mL
same,MIC,[2]; 5 at 8 mg/L,4 µg/mL
same,MIC,[2]; 5 at 16 mg/L,4 µg/mL
same,MIC,[2]; 5 at 32 mg/L,4 µg/mL
same,MIC,[2]; 5 at 64 mg/L,4 µg/mL
same,Activity (FICI class),[3]; PA-042,"I (I (indifference, 0.5 < FICI ≤ 4))"
same,Concentrations of ATM and 5 at lowest FICI (ATM/5),[3]; PA-042,1/4
same,Lowest FICI (ATM/5),[3]; PA-042,0.51
same,Susceptibility to ATM,"[3]; PA-042, ATM/5","S (S (sensitive, MIC ≤ 8 mg/L))"
same,FD (fold decrease in MIC of ATM with 5),"[3]; PA-042, lowest-FICI combination",2
same,MIC,[3]; 5 at 1 mg/L,2 µg/mL
same,MIC,[3]; 5 at 2 mg/L,2 µg/mL
same,MIC,[3]; 5 at 4 mg/L,1 µg/mL
same,MIC,[3]; 5 at 8 mg/L,1 µg/mL
same,MIC,[3]; 5 at 16 mg/L,1 µg/mL
same,MIC,[3]; 5 at 32 mg/L,1 µg/mL
same,MIC,[3]; 5 at 64 mg/L,1 µg/mL
same,Activity (FICI class),[4]; PA-030,"S (S (Synergy, FICI ≤ 0.5))"
same,Concentrations of ATM and 5 at lowest FICI (ATM/5),[4]; PA-030,16/4
same,Lowest FICI (ATM/5),[4]; PA-030,0.26
same,Minimum concentration of 5 to make sensitive to ATM,[4]; PA-030,16 mg/L
same,Susceptibility to ATM,"[4]; PA-030, ATM/5","S (S (sensitive, MIC ≤ 8 mg/L))"
same,FD (fold decrease in MIC of ATM with 5),"[4]; PA-030, lowest-FICI combination",4
same,MIC,[4]; 5 at 1 mg/L,32 µg/mL
same,MIC,[4]; 5 at 2 mg/L,32 µg/mL
same,MIC,[4]; 5 at 4 mg/L,16 µg/mL
same,MIC,[4]; 5 at 8 mg/L,16 µg/mL
same,MIC,[4]; 5 at 16 mg/L,8 µg/mL
same,MIC,[4]; 5 at 32 mg/L,8 µg/mL
same,MIC,[4]; 5 at 64 mg/L,4 µg/mL
same,Activity (FICI class),[5]; PA-035,"S (S (Synergy, FICI ≤ 0.5))"
same,Concentrations of ATM and 5 at lowest FICI (ATM/5),[5]; PA-035,2/8
same,Lowest FICI (ATM/5),[5]; PA-035,0.27
same,Susceptibility to ATM,"[5]; PA-035, ATM/5","S (S (sensitive, MIC ≤ 8 mg/L))"
same,FD (fold decrease in MIC of ATM with 5),"[5]; PA-035, lowest-FICI combination",4
same,MIC,[5]; 5 at 1 mg/L,8 µg/mL
same,MIC,[5]; 5 at 2 mg/L,4 µg/mL
same,MIC,[5]; 5 at 4 mg/L,4 µg/mL
same,MIC,[5]; 5 at 8 mg/L,2 µg/mL
same,MIC,[5]; 5 at 16 mg/L,2 µg/mL
same,MIC,[5]; 5 at 32 mg/L,2 µg/mL
same,MIC,[5]; 5 at 64 mg/L,2 µg/mL
same,Activity (FICI class),[6],"S (S (Synergy, FICI ≤ 0.5))"
